Measured values as given in US20240051936A1, “ISOINDOLINONE COMPOUNDS” (Monte Rosa Therapeutics, Inc., priority 2021, published 2024).
Read-outs that look alike come from different tables or passages of the source.

Legend:
[1] = target: Full length wild-type cereblon CRBN (Homo sapiens (Human), UniProt Q96SW2); test: Fluorescence polarization (FP) assay, cereblon binding
Experimental: Compound activity was monitored in a fluorescence polarization (FP) homogeneous assay using 1-[5-({2-[2-(2-{[2-(2,6-dioxopiperidin-3-yl)-1,3-dioxo-2,3-dihydro-1H-isoindol-4-yl]oxy}acetamido)ethoxy]ethyl}carbamoyl)pentyl]-3,3-dimethyl-2-[(1E,3E)-5-[(2E)-1,3,3-trimethyl-5-sulfo-2,3-dihydro-1H-indol-2-ylidene]penta-1,3-dien-1-yl]-3H-indol-1-ium-5-sulfonate as a fluorescent probe. Unless otherwise stated, all reagents were purchased from Sigma Aldrich. Enzymatic reactions were conducted in Perkin-Elmer Black 384 well ProxiPlate Plus (catalogue no. 6008269) in 10 sL total volume. Full length wild-type cereblon CRBN (80.0 nM, 10 sL) was incubated in assay buffer containing 20 mM HEPES (pH 8.0), […], 0.5 mM TCEP and 0.05% Tween 20 in the presence or absence of compound (300 nL). Inhibitors were stored as 10 mM DMSO stocks in an inert environment (low humidity, dark, low oxygen, room temperature) using the Storage Pod System.
Compounds and DMSO were dispensed using the Echo E5XX (Labcyte Inc. USA) to give concentrations from 300 to 0.937 or 3000 to 9.3 nM in a 12 data point curve. […] Following incubation at room temperature for 30 min, the assay was initiated by dispensing the probe to a final concentration of 5 nM (2.5 nL of a 20 μM stock) using the Echo E5XX. FP was measured after a period of 12 hours using a Pherastar plate reader (BMG Labtech, Germany) exciting at 590 nm and measuring the amount of parallel and perpendicular light at 675 nm. The FP signal was subsequently normalized to the no-compound control (i.e., DMSO). Analysis and IC50 values were derived using Dotmatics (Dotmatics UK) software.

[2] = target: GSPT1 (Homo sapiens (Human), UniProt P15170+Q96SW2); test: Immunofluorescence assay for GSPT1 degradation in CAL-Si cells; type: cell-based; details: CAL-Si cells
GSPT1, sequence (P15170 whole entry): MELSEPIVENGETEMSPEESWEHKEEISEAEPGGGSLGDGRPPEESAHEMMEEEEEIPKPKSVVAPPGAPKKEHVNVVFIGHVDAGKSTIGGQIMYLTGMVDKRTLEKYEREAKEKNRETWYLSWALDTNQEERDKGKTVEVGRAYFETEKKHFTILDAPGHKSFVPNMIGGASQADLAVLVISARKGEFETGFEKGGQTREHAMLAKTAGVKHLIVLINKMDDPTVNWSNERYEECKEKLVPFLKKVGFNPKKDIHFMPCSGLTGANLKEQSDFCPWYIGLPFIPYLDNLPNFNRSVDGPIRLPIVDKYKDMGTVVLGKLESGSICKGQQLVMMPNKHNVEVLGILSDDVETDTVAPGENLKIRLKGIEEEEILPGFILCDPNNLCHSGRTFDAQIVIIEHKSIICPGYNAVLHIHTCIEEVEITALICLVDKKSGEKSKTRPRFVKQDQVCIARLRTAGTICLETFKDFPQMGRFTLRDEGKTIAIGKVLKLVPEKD
GSPT1, sequence (Q96SW2 whole entry): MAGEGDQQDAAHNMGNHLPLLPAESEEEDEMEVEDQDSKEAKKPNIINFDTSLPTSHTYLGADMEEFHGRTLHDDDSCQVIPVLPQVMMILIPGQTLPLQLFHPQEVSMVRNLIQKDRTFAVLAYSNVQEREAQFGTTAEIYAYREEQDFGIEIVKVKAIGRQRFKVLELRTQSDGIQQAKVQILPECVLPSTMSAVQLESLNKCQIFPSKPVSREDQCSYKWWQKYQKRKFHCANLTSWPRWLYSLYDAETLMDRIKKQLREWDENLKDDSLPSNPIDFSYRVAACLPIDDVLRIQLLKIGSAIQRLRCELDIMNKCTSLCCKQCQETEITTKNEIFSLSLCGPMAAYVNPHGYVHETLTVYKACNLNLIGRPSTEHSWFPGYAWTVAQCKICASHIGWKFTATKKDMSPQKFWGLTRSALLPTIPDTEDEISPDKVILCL
GSPT1, sequence (Q16531 whole entry partner): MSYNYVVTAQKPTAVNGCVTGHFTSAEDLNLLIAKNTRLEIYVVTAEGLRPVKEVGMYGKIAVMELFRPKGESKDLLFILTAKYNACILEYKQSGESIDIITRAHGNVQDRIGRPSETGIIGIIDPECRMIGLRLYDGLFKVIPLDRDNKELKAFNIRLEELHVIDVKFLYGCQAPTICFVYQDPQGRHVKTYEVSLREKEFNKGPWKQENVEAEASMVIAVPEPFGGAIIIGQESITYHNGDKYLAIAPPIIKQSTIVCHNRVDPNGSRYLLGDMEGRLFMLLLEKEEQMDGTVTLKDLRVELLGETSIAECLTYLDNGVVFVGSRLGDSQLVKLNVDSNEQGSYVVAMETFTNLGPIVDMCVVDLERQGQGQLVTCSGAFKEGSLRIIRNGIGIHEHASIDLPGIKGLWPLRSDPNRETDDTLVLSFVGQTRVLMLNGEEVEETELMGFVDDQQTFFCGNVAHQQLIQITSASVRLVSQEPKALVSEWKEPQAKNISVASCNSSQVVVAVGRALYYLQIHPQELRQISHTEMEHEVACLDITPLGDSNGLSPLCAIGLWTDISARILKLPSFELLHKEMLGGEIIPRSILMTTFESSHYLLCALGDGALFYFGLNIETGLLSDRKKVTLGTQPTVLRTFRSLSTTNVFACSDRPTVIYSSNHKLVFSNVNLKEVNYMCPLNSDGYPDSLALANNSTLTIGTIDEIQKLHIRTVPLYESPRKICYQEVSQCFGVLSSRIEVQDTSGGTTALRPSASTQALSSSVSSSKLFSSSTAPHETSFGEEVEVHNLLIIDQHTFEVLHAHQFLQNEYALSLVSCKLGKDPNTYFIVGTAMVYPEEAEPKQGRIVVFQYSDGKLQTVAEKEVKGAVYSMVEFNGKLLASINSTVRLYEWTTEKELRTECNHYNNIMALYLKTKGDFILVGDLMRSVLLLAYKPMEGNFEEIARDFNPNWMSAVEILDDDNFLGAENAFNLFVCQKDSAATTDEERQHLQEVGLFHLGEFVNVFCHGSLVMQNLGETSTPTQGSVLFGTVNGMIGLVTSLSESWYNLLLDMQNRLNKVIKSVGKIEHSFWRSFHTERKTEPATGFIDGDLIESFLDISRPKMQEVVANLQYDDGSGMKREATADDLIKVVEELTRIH
Experimental: The compounds were tested in an immunofluorescence assay for their activity to bind to degrade GSPT1. CAL-Si cells were purchased from DSMZ (cat. Number ACC302), sub-cultured in 90% Dulbecco's MEM (4.5 g/L glucose, Gibco 11965)+10% heat inactivated FBS (BioConcept, 2-01F136I) and incubated at 37° C., 5% CO2. For the assay, imaging microtiterplate Cell Carrier 96 Ultra (Perkin Elmer 6055302) were pre-coated with Fibronectin (Sigma F085, 30 μl at 0.2 μg/ml) in PBS (100 μl, Gibco 14190) for 45 min at room temperature, rinsed with PBS and CAL-Si cells (30K cells/well) were plated and let to adhere overnight. Cells were treated with compounds typically using a serial dilution ranging from 30 μM to 0.1 nM for 6 hours. Compounds were stored at 10 mM DMSO stocks. Vehicle (DMSO), positive (CC-885, 10 μM) and rescue controls (positive control plus 0.2 μM bortezomib) were also included at this stage. Cells were subsequently rinsed with PBS and fixed in 10% Formalin solution (50 μl, Sigma HT5011)) for 20 mins at room temperature. Following three consecutive PBS washes (100 μl), cells were permeabilized in 0.1% Triton X-100 in PBS (Sigma 93443, 50 μl) for 15 mins at room temperature. Following three further PBS washes, 50 μl blocking buffer (1% BSA, Sigma A4503, in PBS) was added for 45 min for signal-to-noise reduction.
Primary antibody (human GSPT1, Sigma HPA052488) was diluted in blocking buffer (dil.1/300, 35 μl/well) and incubated with the cells overnight at 4° C. After three PBS washes, Alexa-fluor 488 coupled secondary antibodies (Invitrogen, A32731, dil.1/1000), Alexa-fluor 647-Phalloïdin (Invitrogen, A22287, dil.1/200) and DAPI (Thermo, #62248, dil.1/1000) were diluted in blocking buffer and incubated with the samples for 2 hours at room temperature. After three final PBS washes, samples were conserved in 100 μl PBS in the dark, until measurement. Image acquisition was performed on the Operetta High-Content Imager (Perkin-Elmer). Fluorescence intensity of Alexa-Fluor 488 (GSPT1), Alexa-Fluor 647 (Actin) and DAPI (Nucleus) were measured. For the determination of GSPT1 DC50 values, a custom algorithm implemented in the PerkinElmer image analysis software Harmony-Acapella® was developed. After user-defined setting of adjustment parameters, the analysis was run identically without human intervention for all image fields. DAPI staining of the nuclei was used to determine the location of cells using standard nuclei detection modules. Segmentation artifacts were removed by threshold-based filters for area, roundness and intensity. The outline of the cells was determined analogously from the sum of the normalized, smoothed DAPI and Actin channel, starting from each nucleus. The Alexa-Fluor 488 (GSPT1) signal intensity in each cell was finally measured, in order to obtain a Mean intensity per cell. GSPT1 degradation (DC50) was calculated after normalization to controls and data import in CDD vault Database, using non-linear regression.

[3] = cereblon binding, bound, read-out: IC50 value
[4] = wild-type CRBN 80.0 nM, probe 5 nM, FP measured after 12 hours, read-out: rFP IC50
[5] = treated 6 hours, read-out: Code, activity for GSPT1 degradation (DC50)

Full length wild-type cereblon CRBN, sequence (Q96SW2 whole entry): as the sequence (Q96SW2 whole entry) above

| SMILES | IC50 [1, 3] | IC50 [1, 4] | DC50 [2, 5] | DC50 ([2]; compounds with code A, read-out: DC50 value code) |
| --- | --- | --- | --- | --- |
| COc1cc(COC(=O)Nc2ccc(N3CCCC3C)nc2)cc2c1CN(C1CCC(=O)NC1=O)C2=O (stereo in doubt) [Compound 62, (2-(2,6-dioxopiperidin-3-yl)-7-methoxy-3-oxoisoindolin-5-yl)methyl (6-((R)-2-methylpyrrolidin-1-yl)pyridin-3-yl)carbamate] | < 600 nM | ≤ 600 nM | – | – |
| Cc1ccc(NC(=O)OCc2cc(Br)c3c(c2)C(=O)N(C2CCC(=O)NC2=O)C3)cc1Cl (centres unmarked) [Compound 1, (7-bromo-2-(2,6-dioxopiperidin-3-yl)-3-oxoisoindolin-5-yl)methyl(3-chloro-4-methylphenyl)carbamate] | – | > 1900 nM | 30 to 300 nM | – |
| Cc1ccc(NC(=O)OCc2cc(C#N)c3c(c2)C(=O)N(C2CCC(=O)NC2=O)C3)cc1Cl (centres unmarked) [Compound 2, (7-cyano-2-(2,6-dioxopiperidin-3-yl)-3-oxoisoindolin-5-yl)methyl (3-chloro-4-methylphenyl)carbamate] | – | > 1900 nM | 30 to 300 nM | – |
| Cc1ccc(NC(=O)OCc2cc(F)c3c(c2)C(=O)N(C2CCC(=O)NC2=O)C3)cc1Cl (centres unmarked) [Compound 3, (2-(2,6-dioxopiperidin-3-yl)-7-fluoro-3-oxoisoindolin-5-yl)methyl(3-chloro-4-methylphenyl)carbamate] | – | > 1900 nM | 30 to 300 nM | – |
| Cc1ccc(NC(=O)OCc2cc(Cl)c3c(c2)C(=O)N(C2CCC(=O)NC2=O)C3)cc1Cl (centres unmarked) [Compound 4, (7-chloro-2-(2,6-dioxopiperidin-3-yl)-3-oxoisoindolin-5-yl)methyl (3-chloro-4-methylphenyl)carbamate] | – | > 1900 nM | 30 to 300 nM | – |
| COc1cc(COC(=O)Nc2ccc(C)c(Cl)c2)cc2c1CN(C1CCC(=O)NC1=O)C2=O (centres unmarked) [Compound 5, (2-(2,6-dioxopiperidin-3-yl)-7-methoxy-3-oxoisoindolin-5-yl)methyl(3-chloro-4-methylphenyl)carbamate] | < 600 nM | 600 to 1200 nM | < 30 nM | < 30 nM |
| O=C1CCC(N2Cc3c(F)cc(COC(=O)Nc4cc(F)cc(OC(F)F)c4)cc3C2=O)C(=O)N1 (centres unmarked) [Compound 6, (2-(2,6-dioxopiperidin-3-yl)-7-fluoro-3-oxoisoindolin-5-yl)methyl(3-(difluoromethoxy)-5-fluorophenyl)carbamate] | – | > 1900 nM | 30 to 300 nM | – |
| O=C1CCC(N2Cc3c(F)cc(COC(=O)Nc4ccc(F)c(OC(F)F)c4)cc3C2=O)C(=O)N1 (centres unmarked) [Compound 7, (2-(2,6-dioxopiperidin-3-yl)-7-fluoro-3-oxoisoindolin-5-yl)methyl(3-(difluoromethoxy)-4-fluorophenyl)carbamate] | < 600 nM | 1200 to 1900 nM | 30 to 300 nM | – |
| CC(C)(C)c1ccc(NC(=O)OCc2cc(F)c3c(c2)C(=O)N(C2CCC(=O)NC2=O)C3)cn1 (centres unmarked) [Compound 9, (2-(2,6-dioxopiperidin-3-yl)-7-fluoro-3-oxoisoindolin-5-yl)methyl(6-(tert-butyl)pyridin-3-yl)carbamate] | < 600 nM | – | – | – |
| CC1(C)COc2cc(NC(=O)OCc3cc(F)c4c(c3)C(=O)N(C3CCC(=O)NC3=O)C4)ccc21 (centres unmarked) [Compound 17, (2-(2,6-dioxopiperidin-3-yl)-7-fluoro-3-oxoisoindolin-5-yl)methyl(3,3-dimethyl-2,3-dihydrobenzofuran-6-yl) carbamate] | < 1200 nM | – | – | – |
| Cc1cc(NC(=O)OCc2cc(F)c3c(c2)C(=O)N(C2CCC(=O)NC2=O)C3)cnc1-c1ccccc1 (centres unmarked) [Compound 20, (2-(2,6-dioxopiperidin-3-yl)-7-fluoro-3-oxoisoindolin-5-yl)methyl(5-methyl-6-phenylpyridin-3-yl)carbamate] | < 600 nM | – | – | – |
| C[C@@H]1CCCN1c1ccc(NC(=O)OCc2cc(F)c3c(c2)C(=O)N(C2CCC(=O)NC2=O)C3)cn1 (stereo partly drawn) [Compound 23, (2-(2,6-dioxopiperidin-3-yl)-7-fluoro-3-oxoisoindolin-5-yl)methyl (6-((R)-2-methylpyrrolidin-1-yl)pyridin-3-yl)carbamate] | < 600 nM | – | – | – |
| Cc1cc(Cl)cc(NC(=O)OCc2cc(F)c3c(c2)C(=O)N(C2CCC(=O)NC2=O)C3)c1 (centres unmarked) [Compound 27, (2-(2,6-dioxopiperidin-3-yl)-7-fluoro-3-oxoisoindolin-5-yl)methyl(3-chloro-5-methylphenyl)carbamate] | < 600 nM | – | – | – |
| COc1cc(COC(=O)Nc2ccc(F)c(OC(F)(F)F)c2)cc2c1CN(C1CCC(=O)NC1=O)C2=O (centres unmarked) [Compound 39, (2-(2,6-dioxopiperidin-3-yl)-7-methoxy-3-oxoisoindolin-5-yl)methyl(4-fluoro-3-(trifluoromethoxy)phenyl) carbamate] | < 600 nM | – | – | – |
| COc1cc(COC(=O)Nc2cc(F)cc(OC(F)F)c2)cc2c1CN(C1CCC(=O)NC1=O)C2=O (centres unmarked) [Compound 47, (2-(2,6-dioxopiperidin-3-yl)-7-methoxy-3-oxoisoindolin-5-yl)methyl(3-(difluoromethoxy)-5-fluorophenyl) carbamate] | < 600 nM | – | – | – |
| COc1cc(COC(=O)Nc2ccc(C3CCC3)cc2)cc2c1CN(C1CCC(=O)NC1=O)C2=O (centres unmarked) [Compound 57, (2-(2,6-dioxopiperidin-3-yl)-7-methoxy-3-oxoisoindolin-5-yl)methyl(4-cyclobutylphenyl) carbamate] | < 1200 nM | – | – | – |
| Cc1cc(F)cc(NC(=O)OCc2cc(F)c3c(c2)C(=O)N(C2CCC(=O)NC2=O)C3)c1 (centres unmarked) [Compound 63, (2-(2,6-dioxopiperidin-3-yl)-7-fluoro-3-oxoisoindolin-5-yl)methyl (3-fluoro-5-methylphenyl)carbamate] | – | – | 30 to 300 nM | – |
| Cc1cc(F)c(NC(=O)OCc2cc(F)c3c(c2)C(=O)N(C2CCC(=O)NC2=O)C3)cc1Cl (centres unmarked) [Compound 64, (2-(2,6-dioxopiperidin-3-yl)-7-fluoro-3-oxoisoindolin-5-yl)methyl(5-chloro-2-fluoro-4-methylphenyl)carbamate] | – | – | 30 to 300 nM | – |
| O=C1CCC(N2Cc3c(F)cc(COC(=O)Nc4cc(OC(F)(F)F)ccc4F)cc3C2=O)C(=O)N1 (centres unmarked) [Compound 65, (2-(2,6-dioxopiperidin-3-yl)-7-fluoro-3-oxoisoindolin-5-yl)methyl (2-fluoro-5-(trifluoromethoxy)phenyl) carbamate] | – | – | 30 to 300 nM | – |
| COc1cc(COC(=O)Nc2cc(Cl)c(C)cc2F)cc2c1CN(C1CCC(=O)NC1=O)C2=O (centres unmarked) [Compound 68, (2-(2,6-dioxopiperidin-3-yl)-7-methoxy-3-oxoisoindolin-5-yl)methyl (5-chloro-2-fluoro-4-methylphenyl)carbamate] | – | – | > 300 nM | – |
| Cc1ccc(NC(=O)OCc2ccc3c(c2C)C(=O)N(C2CCC(=O)NC2=O)C3)cc1Cl (centres unmarked) [Compound 73, (2-(2,6-dioxopiperidin-3-yl)-4-methyl-3-oxoisoindolin-5-yl)methyl(3-chloro-4-methylphenyl)carbamate] | – | ≤ 600 nM | – | – |
